± gives the expanded uncertainty stated by the source.
Conditions: Crystal; DTA

Triple point temperature [K]	SMILES
832 ± 0.6	[Ag][I] [silver iodide]
1074 ± 0.6	[Cl-].[Na+] [sodium chloride]

Source: the NIST ThermoML archive (doi:10.1016/j.jct.2015.06.015)
